Experimental data from ChEMBL document CHEMBL1201862, “PubChem BioAssay data set” (2004).
Activity calls are given as the source filed them.

Legend:
[1] = viability inhibitors of stage V gametocytes – luminescence, dose response (AID 1117278); format: functional, cell-based;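 further: gametocytes exposed to compound for 24 hours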
[2] = viability loss in human Jurkat cells – cell-based, luminescence, cytotoxicity control for P. falciparum gametocyte viability project, dose response (AID 1117277); format: functional;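 further: potency reflects loss of cellular ATP meaning fewer viable cells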
[3] = test system: Vero; assay: mammalian cell viability reduction – secondary assay, cytotoxicity control for West Nile virus antiviral project, dose response (AID 1650); format: functional; conditions: Chlorocebus sabaeus
[4] = A549 cell cytotoxicity, dose response, cytotoxicity control, plate reader, cherry-pick, antagonist series (AID 743412); format: functional, cell-based
[5] = toxicity toward HepG2 liver cells – cell-based, plate reader, cherry-pick, antagonist series, cytotoxicity control, dose response (AID 743416); format: functional
[6] = blockers of bursicon-stimulated LGR2 cAMP reporter – cell-based, HEK293, CRE-luciferase reporter, cherry pick, set 2, dose response (AID 743343); format: functional;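 further: transfected cells were stimulated with diluted bursicon conditioned medium after compound addition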
[7] = blockade of melanocortin 4 receptor signaling – cell-based, plate reader, cherry pick, counter-screen for LGR2 antagonist project, dose response (AID 743444); format: functional;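 further: transfected HEK 293 cells stimulated with alpha-MSH peptide; potency of inhibitors of the alpha-MSH evoked signal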
[8] = viability loss in HEK293 cells – cell-based, plate reader, cherry-picked samples, cytotoxicity control, dose response (AID 743446); format: functional
[9] = target: Kallikrein-7 (Homo sapiens, UniProt P49862); assay: Fluorescence Intensity-based biochemical primary high throughput dose response assay to identify activators of kallikrein-7 (K7) zymogen.
Sequence of Kallikrein-7 (P49862 whole entry): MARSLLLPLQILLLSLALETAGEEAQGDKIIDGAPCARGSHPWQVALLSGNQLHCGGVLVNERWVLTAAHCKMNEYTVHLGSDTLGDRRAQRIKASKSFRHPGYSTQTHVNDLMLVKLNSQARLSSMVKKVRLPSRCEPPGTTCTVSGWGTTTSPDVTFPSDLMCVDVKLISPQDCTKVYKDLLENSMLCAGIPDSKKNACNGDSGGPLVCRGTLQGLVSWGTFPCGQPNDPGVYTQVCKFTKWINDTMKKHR

[10] = target: T1, 1-phosphatidylinositol 4,5-bisphosphate phosphodiesterase gamma-1 (Homo sapiens, UniProt P19174); assay: Counterscreen for inhibitors of phospholipase C isozymes (PLC-B3): Fluorescence-based biochemical high throughput dose response assay to identify inhibitors of phospholipase C isozymes (PLC-gamma1).
T1 sequence (P19174 whole entry): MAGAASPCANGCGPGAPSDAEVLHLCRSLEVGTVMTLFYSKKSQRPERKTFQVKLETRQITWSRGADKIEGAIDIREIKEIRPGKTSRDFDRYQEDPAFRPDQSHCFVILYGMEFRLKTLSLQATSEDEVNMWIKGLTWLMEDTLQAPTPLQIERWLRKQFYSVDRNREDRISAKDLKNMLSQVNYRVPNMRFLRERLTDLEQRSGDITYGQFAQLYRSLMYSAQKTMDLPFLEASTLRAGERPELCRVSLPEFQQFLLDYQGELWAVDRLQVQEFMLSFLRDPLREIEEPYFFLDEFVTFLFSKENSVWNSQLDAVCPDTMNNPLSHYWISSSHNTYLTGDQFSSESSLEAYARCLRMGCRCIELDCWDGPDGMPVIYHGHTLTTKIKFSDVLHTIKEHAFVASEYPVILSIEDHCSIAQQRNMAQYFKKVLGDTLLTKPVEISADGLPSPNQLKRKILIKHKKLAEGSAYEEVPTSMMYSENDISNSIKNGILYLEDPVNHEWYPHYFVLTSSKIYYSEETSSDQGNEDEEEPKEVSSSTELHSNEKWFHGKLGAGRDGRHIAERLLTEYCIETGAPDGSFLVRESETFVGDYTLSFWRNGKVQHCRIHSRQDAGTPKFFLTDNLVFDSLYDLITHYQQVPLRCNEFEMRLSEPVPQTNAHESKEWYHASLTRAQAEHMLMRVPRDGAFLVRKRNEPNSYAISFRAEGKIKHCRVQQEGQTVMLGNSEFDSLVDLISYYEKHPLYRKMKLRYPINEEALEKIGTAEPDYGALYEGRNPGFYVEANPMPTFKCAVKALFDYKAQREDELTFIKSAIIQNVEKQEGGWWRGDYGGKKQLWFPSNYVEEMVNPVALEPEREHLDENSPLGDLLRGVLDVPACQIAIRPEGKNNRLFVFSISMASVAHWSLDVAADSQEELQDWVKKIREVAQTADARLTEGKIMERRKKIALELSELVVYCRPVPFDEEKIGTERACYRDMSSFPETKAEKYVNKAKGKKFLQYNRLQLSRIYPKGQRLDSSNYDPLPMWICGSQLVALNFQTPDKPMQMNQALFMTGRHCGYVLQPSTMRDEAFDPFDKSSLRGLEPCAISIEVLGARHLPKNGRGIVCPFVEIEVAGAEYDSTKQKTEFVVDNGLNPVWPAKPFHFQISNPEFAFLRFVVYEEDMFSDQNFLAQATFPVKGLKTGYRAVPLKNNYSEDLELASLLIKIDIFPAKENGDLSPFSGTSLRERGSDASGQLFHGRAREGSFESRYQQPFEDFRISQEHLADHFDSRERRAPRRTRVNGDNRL

[11] = target: T2, 1-phosphatidylinositol 4,5-bisphosphate phosphodiesterase beta-3 (Homo sapiens, UniProt Q01970); assay: Fluorescence-based biochemical high throughput dose response assay to identify inhibitors of phospholipase C isozymes (PLC-B3).
T2 sequence (Q01970 whole entry): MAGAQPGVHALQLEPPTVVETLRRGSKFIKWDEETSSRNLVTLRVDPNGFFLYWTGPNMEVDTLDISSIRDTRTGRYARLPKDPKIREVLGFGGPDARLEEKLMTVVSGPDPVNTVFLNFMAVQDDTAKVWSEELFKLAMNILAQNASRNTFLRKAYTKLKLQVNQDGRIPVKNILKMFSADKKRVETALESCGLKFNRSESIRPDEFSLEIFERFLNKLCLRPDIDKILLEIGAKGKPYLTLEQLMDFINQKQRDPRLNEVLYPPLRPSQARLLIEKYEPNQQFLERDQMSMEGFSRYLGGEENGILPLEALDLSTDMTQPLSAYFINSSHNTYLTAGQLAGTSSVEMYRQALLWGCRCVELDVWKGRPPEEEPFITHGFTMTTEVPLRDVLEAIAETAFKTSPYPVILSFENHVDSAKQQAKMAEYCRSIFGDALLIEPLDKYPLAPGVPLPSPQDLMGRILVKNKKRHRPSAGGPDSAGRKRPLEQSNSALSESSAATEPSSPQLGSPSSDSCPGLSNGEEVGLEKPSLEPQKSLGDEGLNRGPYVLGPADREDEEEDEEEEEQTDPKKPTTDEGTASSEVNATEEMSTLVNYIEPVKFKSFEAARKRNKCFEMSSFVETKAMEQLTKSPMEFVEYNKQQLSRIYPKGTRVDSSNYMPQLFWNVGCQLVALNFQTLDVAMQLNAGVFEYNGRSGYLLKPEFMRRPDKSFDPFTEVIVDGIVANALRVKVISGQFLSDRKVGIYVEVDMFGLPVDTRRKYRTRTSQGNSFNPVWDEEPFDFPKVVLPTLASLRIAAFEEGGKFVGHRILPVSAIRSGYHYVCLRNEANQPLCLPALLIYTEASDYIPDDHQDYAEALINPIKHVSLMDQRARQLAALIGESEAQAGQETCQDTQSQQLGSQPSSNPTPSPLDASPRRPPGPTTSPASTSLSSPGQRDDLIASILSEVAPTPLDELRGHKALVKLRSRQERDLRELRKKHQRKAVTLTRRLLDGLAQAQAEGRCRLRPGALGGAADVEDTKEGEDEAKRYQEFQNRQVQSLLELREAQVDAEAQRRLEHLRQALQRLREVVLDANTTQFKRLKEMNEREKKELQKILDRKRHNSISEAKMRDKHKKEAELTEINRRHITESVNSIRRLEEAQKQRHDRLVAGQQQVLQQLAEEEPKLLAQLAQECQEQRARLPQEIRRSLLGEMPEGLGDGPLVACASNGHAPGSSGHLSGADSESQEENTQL

[12] = Fluorescence-based cell-based high throughput dose response assay for inhibitors of the interaction of nucleotide-binding oligomerization domain containing 2 (NOD2) and the receptor-interacting serine-threonine kinase 2 (RIPK2).; format: functional; conditions: Homo sapiens
[13] = target: Paired box protein Pax-8 (Homo sapiens, UniProt Q06710); assay: PAX8 transcriptional activity inhibition in RMG-I – RMG-I cells, luciferase, cherry-pick, dose response (AID 687027); format: functional, cell-based;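 further: luciferase reporter driven by Pax8 target thyroperoxidase promoter measured by SteadyGlo luminescence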
Sequence of Paired box protein Pax-8 (Q06710 whole entry): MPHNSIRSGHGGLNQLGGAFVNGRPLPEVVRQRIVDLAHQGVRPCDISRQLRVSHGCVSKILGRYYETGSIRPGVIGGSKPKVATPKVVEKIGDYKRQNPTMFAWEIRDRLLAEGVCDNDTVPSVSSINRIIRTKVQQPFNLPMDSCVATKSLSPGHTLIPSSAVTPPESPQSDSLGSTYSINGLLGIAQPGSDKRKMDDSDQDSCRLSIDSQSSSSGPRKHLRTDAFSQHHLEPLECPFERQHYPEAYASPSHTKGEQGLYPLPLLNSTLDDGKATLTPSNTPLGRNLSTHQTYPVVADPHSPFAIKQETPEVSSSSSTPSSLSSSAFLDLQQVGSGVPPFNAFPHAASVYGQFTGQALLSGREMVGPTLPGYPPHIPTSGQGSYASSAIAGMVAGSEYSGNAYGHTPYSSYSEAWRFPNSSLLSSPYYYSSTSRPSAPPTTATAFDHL

In the case of `O=C(COC(=O)CSc1ccc2ccccc2c1)NCc1ccc2c(c1)OCO2`, the IC50 [1] is reported as > 109 µM (inactive) and the IC50 [2] is reported as > 83.3 µM (inactive).

With `COc1ccc2nc(Nc3nc(O)cc(CSc4nnnn4-c4ccccc4)n3)nc(C)c2c1` the CC50 [3] was > 100 µM (active).

In the case of `Cc1cccc(-c2cc3nc(C)cc(NCCCN(C)C)n3n2)c1`, the CC50 [3] is reported as 64.2 µM (active).

In the case of `C[C@@H]1CN([C@H](C)CO)C(=O)Cc2cc(NS(=O)(=O)c3ccc(Cl)cc3)ccc2O[C@@H]1CN(C)Cc1ccc(C(F)(F)F)cc1`, the AC50 [4] is reported as 7.62 µM (active), the AC50 [5] is reported as 10.4 µM (active) and the AC50 [6] is reported as 22.7 µM (active). The AC50 [7] was 20.2 µM (active) and the AC50 [8] was 15.8 µM (active).

In the case of `Clc1ccc(-c2cnc3cccnn23)cc1`, the EC50 [9] is reported as > 69.5 µM (inactive).

In the case of `Cc1ccc(S(=O)(=O)Cc2nc(O)c3ccccc3n2)cc1`, the IC50 [10] is reported as > 123 µM (inactive) and the IC50 [11] is reported as > 123 µM (inactive).

With `O=C1NC2C(O)C(O)C(O)C(O)C2c2cc3c(c(O)c21)OCO3` (centres undefined) the IC50 [12] was 49.8 µM (inactive), the AC50 [13] was < 260 nM (active) and the AC50 [4] was 0.358 µM (active). The AC50 [5] was 0.428 µM (active), the AC50 [6] was 0.362 µM (active) and the AC50 [7] was 0.372 µM (active). The AC50 [8] was 0.321 µM (active).
